# Measurements from US4416870A, “Antibiotic compound, its production and its medicinal use” (Bayer Aktiengesellschaft, priority 1981, dated 1983).
# *1 amine or outer side, *2 acyl side, *3 side chain or, on linkers, in order; H or OH if unused. Where a SMILES comes first, the peptide text is derived from it. [ ]: non-standard residue; d: D form. ξ: configuration not given here. X1 = Cn1c(=O)ccn(C2SC(C(O)C(N[*:1])C(=O)[*:2])C(O)C2O)c1=O; ξOrn(N(OH)Ac) = CC(=O)N(O)CCCC(N)C(=O)O; ξS = NC(CO)C(=O)O
# Key:
# E. coli 205 Kn = assay: Animal test (mice), ED100 after intraperitoneal infection and subcutaneous treatment (Example B); type: in vivo, mice infected with E. coli; conditions: Escherichia coli, sc, dose at which all infected and treated animals survive
# Experimental: (§1) BAYi 3265 component A animal test (mice) | ED100 after intraperitoneal | infection and subcutaneous |Infecting germ treatment in mg/kg The animals were infected with a quantity of bacteria, which quantity led to the death of the control animals within 24 hours. The ED100 was the dose which allowed all infected and treated animals to survive.
# E. coli Neumann [1] = assay: as above; type: in vivo, mice infected with E. coli; conditions: Escherichia coli, sc, dose at which all infected and treated animals survive
# Experimental: as §1
# Klebsiella pneumoniae 63 = assay: as above; type: in vivo, mice infected with Klebsiella pneumoniae; conditions: sc, dose at which all infected and treated animals survive
# Experimental: as §1
# E. coli Neumann [2] = assay: White mouse, ED100 (complete cure) on infection with E. coli Neumann, single subcutaneous application; type: in vivo, white mouse infected with E. coli; conditions: Escherichia coli, sc, 0.5 h, once, 30 minutes after infection, subcutaneously
# Experimental: For the white mouse, an ED100 (complete cure) is found in vivo, at 3 mg of antibiotic/kg of body weight, on infection with E. coli Neumann; therapy: application once, 30 minutes after infection, subcutaneously.
# physchem = conditions: organic solvent or mixture
smiles,measurement,setting,value
CC(=O)N(O)CCCC(N)C(=O)NC(CCCN(O)C(C)=O)C(=O)NC(CCCN(O)C(C)=O)C(=O)NC(CO)C(=O)NC(C(=O)O)C(O)C1SC(n2ccc(=O)n(C)c2=O)C(O)C1O (centres unmarked) [BAYi 3265 Component A] (H-[ξOrn(N(OH)Ac)][ξOrn(N(OH)Ac)][ξOrn(N(OH)Ac)][ξS][X1]-OH),ED100,E. coli 205 Kn,0.1 mg/kg
same,ED100,E. coli Neumann [1],0.5 mg/kg
same,ED100,Klebsiella pneumoniae 63,0.2 mg/kg
same,ED100,E. coli Neumann [2],3 mg/kg
same,solubility,physchem; chloroform,< 100 µg/mL
same,solubility,physchem; dimethylformamide,< 10000 µg/mL
same,solubility,physchem; dimethylsulphoxide,< 10000 µg/mL
same,solubility,physchem; ether,< 100 µg/mL
same,solubility,physchem; ethyl acetate,< 100 µg/mL
same,solubility,physchem; methanol,< 10000 µg/mL
same,solubility,physchem; petroleum ether,< 100 µg/mL
